According to US20090215742A1, “AMIDE […]” (PFIZER, INC., priority 2005, published 2009):

Molecular target: T1, HSP-90 (Homo sapiens, UniProt P07900)
T1 construct: fused on or other part: 6-His tag at the C-terminus
Test: HSP-90 SPA (scintillation proximity assay) competition binding assay, displacement of tritiated propyl-Geldanamycin
Settings: for inhibition at 1 µM: read-out: % inhibition @ 1 μM; for inhibition at 10 µM: read-out: % inhibition @ 10 μM
Experimental: Compounds of the present invention were evaluated for potency against HSP-90 using a SPA (scintillation proximity assay) competition binding assay. Briefly, either full length or N-terminal HSP-90 that contains a 6-His tag on its C-terminus binds to copper on Yttrium-silicate scintillant beads via the His-tag. Tritiated propyl-Geldanamycin (pGA), whose structure is shown below, is an analog of a natural inhibitor of HSP-90 called Geldanamycin.
Tritiated pGA, which contains a tritiated propyl-amine group added at the #17 position, binds HSP-90 and brings the isotope into proximity with the beads. […] The beta signal emitted from the isotope excites the scintillant, which creates a measurable signal. As competitive compounds are added to the assay mixture, they compete with bound tritiated pGA at the ATP-binding site on the N-terminal of HSP-90. When a compound displaces the labeled pGA, the signal is reduced (the beta-particles are no longer in proximity with the bead). This reduction in signal is used to quantify the extent to which the inhibitor/compound is competitive with pGA.
Typical reaction solutions contained 30 nM HSP-90 and 200 nM ^3H-pGA in binding buffer (100 mM Hepes, pH 7.5 and 150 mM KCl). […] Inhibitors were added to the HSP-90/^3H-pGA solutions at eleven different concentrations for Ki determinations. […] To determine percent inhibition, the compound was tested at 1 and 10 μM. The final DMSO in the samples was 4%. Copper-Ysi beads (Amersham, #RPNQ0096) that have been diluted in binding buffer were added to each well to give a final concentration of 100 μg/well. The plates were sealed, covered with a foil-covered lid and shaken for 30 minutes at room temperature. The beads were allowed to settle for 30 minutes after which the plates were counted using a Packard TopCount NXT instrument. This procedure has also been adapted for medium throughput using a Beckman Biomek FX. Samples were run in duplicate and on two separate days to assure an accurate value of Ki.
For Ki determinations, the corrected cpm's (actual cpm's minus background) were plotted vs. inhibitor concentration using GraphPad Prism software. […] The IC50 was then used to calculate the Ki by using the Cheng-Prusoff equation: […]
This is normally true when the observed IC50 is […] the HSP-90 concentration. For a tight binding inhibitor, the following equation can be applied: […]
EL and ELo are the radioligand-HSP-90 complexes in the presence and absence of inhibitor, respectively. EL/ELo represents the fractional signal in the presence of inhibitor. Io, Eo, and Lo are the inhibitor, HSP-90, and radioligand concentrations, respectively.

Row | SMILES | inhibition at 1 µM | inhibition at 10 µM
1 | O=C(c1cc2ccccc2cc1O)N1Cc2ccccc2C1 [Example 24, 3-(1,3-dihydro-2H-isoindol-2-ylcarbonyl)-2-naphthol] | 5.4% | 34.9%
2 | COc1ccc2cc(O)c(C(=O)N3Cc4ccccc4C3)cc2c1 [Example 25, 3-(1,3-dihydro-2H-isoindol-2-ylcarbonyl)-6-methoxy-2-naphthol] | 9.9% | 13.7%
3 | O=C(c1ccc(Cl)cc1O)N1Cc2ccccc2C1 [Example 26, 5-chloro-2-(1,3-dihydro-2H-isoindol-2-ylcarbonyl)phenol] | 1% | 39%
4 | Cc1ccc(C(=O)N2Cc3ccccc3C2)c(O)c1 [Example 27, 2-(1,3-dihydro-2H-isoindol-2-ylcarbonyl)-5-methylphenol] | 0.2% | 26.2%
5 | O=C(c1cc(-c2ccc(F)cc2F)ccc1O)N1Cc2ccccc2C1 [Example 28, 3-(1,3-dihydro-2H-isoindol-2-ylcarbonyl)-2′,4′-difluorobiphenyl-4-ol] | 50.8% | 76.2%
6 | O=C(c1ccc(F)cc1O)N1Cc2ccccc2C1 [Example 29, 2-(1,3-dihydro-2H-isoindol-2-ylcarbonyl)-5-fluorophenyl] | 0% | 26.6%
7 | Cc1ccc(O)c(C(=O)N2Cc3ccccc3C2)c1 [Example 30, 2-(1,3-dihydro-2H-isoindol-2-ylcarbonyl)-4-methylphenyl] | 5.8% | 61.2%
8 | Nc1nccc(-c2ccc(O)c(C(=O)N3Cc4ccccc4C3)c2)n1 [Example 31, 4-(2-aminopyrimidin-4-yl)-2-(1,3-dihydro-2H-isoindol-2-ylcarbonyl)phenol] | 8.1% | 12.9%
9 | O=C(c1cc(-c2ccncn2)ccc1O)N1Cc2ccccc2C1 [Example 32, 2-(1,3-dihydro-2H-isoindol-2-ylcarbonyl)-4-pyrimidin-4-ylphenyl] | -11.9% | 14.2%
10 | O=C(c1cc(-c2cc[nH]n2)ccc1O)N1Cc2ccccc2C1 [Example 33, 2-(1,3-dihydro-2H-isoindol-2-ylcarbonyl)-4-(1H-pyrazol-3-yl)phenol] | 2% | 20.9%
11 | CCc1nccc(-c2ccc(O)c(C(=O)N3Cc4ccccc4C3)c2)n1 [Example 34, 2-(1,3-dihydro-2H-isoindol-2-ylcarbonyl)-4-(2-ethylpyrimidin-4-yl)phenol] | -3.1% | 43%
12 | Cc1nccc(-c2ccc(O)c(C(=O)N3Cc4ccccc4C3)c2)n1 [Example 35, 2-(1,3-dihydro-2H-isoindol-2-ylcarbonyl)-4-(2-methylpyrimidin-4-yl)phenol] | 6.1% | 32.8%
13 | O=C(c1ccc(O)cc1O)N1CCOCC(COCC2CC2)C1 (stereo not drawn) [Example 37] | 24.6% | 64.1%
14 | O=C(c1ccc(O)cc1O)N1CCOCC(O)(COCC2CC2)C1 (stereo not drawn) [Example 38] | 27.4% | 68.4%
15 | CC(C)CN(C)C(=O)c1ccc(O)cc1O [Example 39, 2,4-dihydroxy-N-isobutyl-N-methylbenzamide] | 11.3% | 52.3%
16 | CN(C(=O)c1ccc(O)cc1O)[C@@H]1CCCC[C@H]1O [Example 40, 2,4-dihydroxy-N-(2-hydroxycyclohexyl)-N-methylbenzamide] | 13.2% | 49.1%
17 | CC(C)(C)CC1CCCCN1C(=O)c1ccc(O)cc1O (stereo not drawn) [Example 41, 4-{[2-(2,2-dimethylpropyl)piperidin-1-yl]carbonyl}benzene-1,3-diol] | 64.8% | 86.8%
18 | CC1CCN(C(=O)c2ccc(O)cc2O)CC1 [Example 42, 4-[(4-methylpiperidin-1-yl)carbonyl]benzene-1,3-diol] | 59.9% | 86.5%

Row | SMILES | inhibition at 1 µM | inhibition at 10 µM
19 | O=C(c1ccc(O)cc1O)N1CCC(Cc2ccc(Cl)cc2)CC1 [Example 43, 4-{[4-(4-chlorobenzyl)piperidin-1-yl]carbonyl}benzene-1,3-diol] | 35.9% | 73.6%
20 | O=C(c1ccc(O)cc1O)N1CCCCC1CCC1CCCC1 (stereo not drawn) [Example 44, 4-{[2-(2-cyclopentylethyl)piperidin-1-yl]carbonyl}benzene-1,3-diol] | 82.4% | 90.5%
21 | CN(C(=O)c1ccc(O)cc1O)[C@H]1CCCC[C@@H]1O [Example 45, 2,4-dihydroxy-N-(2-hydroxycyclohexyl)-N-methylbenzamide] | 9.6% | 38.3%
22 | O=C(c1ccc(O)cc1O)N1CCC(CCc2ncccn2)CC1 [Example 46, 4-{[4-(2-pyrimidin-2-ylethyl)piperidin-1-yl]carbonyl}benzene-1,3-diol] | 44.9% | 77.1%
23 | O=C(c1ccc(O)cc1O)N1CCC(CCc2cnccn2)CC1 [Example 47, 4-{[4-(2-pyrazin-2-ylethyl)piperidin-1-yl]carbonyl}benzene-1,3-diol] | 43.4% | 80%
24 | O=C(c1ccc(O)cc1O)N1CCC(CCc2cccc(Cl)c2)CC1 [Example 48, 4-({4-[2-(3-chlorophenyl)ethyl]piperidin-1-yl}carbonyl)benzene-1,3-diol] | 63.3% | 87.5%
25 | O=C(c1ccc(O)cc1O)N1CCC(CCc2ccccc2)CC1 [Example 49, 4-{[4-(2-phenylethyl)piperidin-1-yl]carbonyl}benzene-1,3-diol] | 61.2% | 86.3%
26 | O=C(c1ccc(O)cc1O)N1CCC(CCc2cncnc2)CC1 [Example 50, 4-{[4-(2-pyrimidin-5-ylethyl)piperidin-1-yl]carbonyl}benzene-1,3-diol] | 34.6% | 77.7%
27 | O=C(c1ccc(O)cc1O)N1CCC2(CC1)CC(OCc1ccccc1F)CO2 (stereo not drawn) [Example 51, 4-({3-[(2-fluorobenzyl)oxy]-1-oxa-8-azaspiro[4.5]dec-8-yl}carbonyl)benzene-1,3-diol] | 22.1% | 70.9%
28 | CCOC(=O)C1CCCN(C(=O)c2ccc(O)cc2O)C1 (stereo not drawn) [Example 52, ethyl 1-(2,4-dihydroxybenzoyl)piperidine-3-carboxylate] | 39.1% | 80.2%
29 | C[C@H]([C@@H](O)c1ccccc1)N(C)C(=O)c1ccc(O)cc1O [Example 53, 2,4-dihydroxy-N-(2-hydroxy-1-methyl-2-phenylethyl)-N-methylbenzamide] | -7.8% | 7.3%
30 | O=C(c1ccc(O)cc1O)N1CCC(c2ccccc2)(c2ccccc2)CC1 [Example 54, 4-[(4,4-diphenylpiperidin-1-yl)carbonyl]benzene-1,3-diol] | 50.3% | 85.5%
31 | O=C(c1ccc(O)cc1O)N1CCCC(CCOc2ccccc2)C1 (stereo not drawn) [Example 55, 4-{[3-(2-phenoxyethyl)piperidin-1-yl]carbonyl}benzene-1,3-diol] | 77.4% | 87%
32 | CCOc1cc2c(cc1OCC)CN(C(=O)c1ccc(O)cc1O)CC2 [Example 56, 4-[(6,7-diethoxy-3,4-dihydroisoquinolin-2(1H)-yl)carbonyl]benzene-1,3-diol] | 27% | 73%
33 | O=C(c1ccc(O)cc1O)N1CCCCC1c1cccc(F)c1 (stereo not drawn) [Example 57, 4-{[2-(3-fluorophenyl)piperidin-1-yl]carbonyl}benzene-1,3-diol] | 73.7% | 88.2%
34 | CCc1nc(COCC2CCN(C(=O)c3ccc(O)cc3O)C2)no1 (stereo not drawn) [Example 58, 4-[(3-{[(5-ethyl-1,2,4-oxadiazol-3-yl)methoxy]methyl}pyrrolidin-1-yl)carbonyl]benzene 1,3-diol] | 29.3% | 72.5%
35 | O=C(c1ccc(O)cc1O)N1CCCC(COc2cccc(Cl)c2)C1 (stereo not drawn) [Example 59, 4-({3-[(3-chlorophenoxy)methyl]piperidin-1-yl}carbonyl)benzene-1,3-diol] | 58.6% | 82.9%
36 | Cc1ccc(OCC2CCCN(C(=O)c3ccc(O)cc3O)C2)cn1 (stereo not drawn) [Example 60, 4-[(3-{[(6-methylpyridin-3-yl)oxy]methyl}piperidin-1-yl)carbonyl]benzene 1,3-diol] | 77.6% | 88.1%
